From ChEMBL document CHEMBL1137170, “Synthesis, biophysical and biological evaluation of 3,6-bis-amidoacridines with extended 9-anilino substituents as potent G-quadruplex-binding telomerase inhibitors” (Bioorg Med Chem Lett, 2004)
pEC50: −log10 of the molar value.

Legend:
[1] = target: Telomerase reverse transcriptase (Homo sapiens, UniProt O14746); assay: Effective concentration against telomerase by TRAP
Nucleic Acid = assay: Concentration required for G4-stabilisation in FRET assay; format: functional

Chain of Telomerase reverse transcriptase (O14746 whole entry): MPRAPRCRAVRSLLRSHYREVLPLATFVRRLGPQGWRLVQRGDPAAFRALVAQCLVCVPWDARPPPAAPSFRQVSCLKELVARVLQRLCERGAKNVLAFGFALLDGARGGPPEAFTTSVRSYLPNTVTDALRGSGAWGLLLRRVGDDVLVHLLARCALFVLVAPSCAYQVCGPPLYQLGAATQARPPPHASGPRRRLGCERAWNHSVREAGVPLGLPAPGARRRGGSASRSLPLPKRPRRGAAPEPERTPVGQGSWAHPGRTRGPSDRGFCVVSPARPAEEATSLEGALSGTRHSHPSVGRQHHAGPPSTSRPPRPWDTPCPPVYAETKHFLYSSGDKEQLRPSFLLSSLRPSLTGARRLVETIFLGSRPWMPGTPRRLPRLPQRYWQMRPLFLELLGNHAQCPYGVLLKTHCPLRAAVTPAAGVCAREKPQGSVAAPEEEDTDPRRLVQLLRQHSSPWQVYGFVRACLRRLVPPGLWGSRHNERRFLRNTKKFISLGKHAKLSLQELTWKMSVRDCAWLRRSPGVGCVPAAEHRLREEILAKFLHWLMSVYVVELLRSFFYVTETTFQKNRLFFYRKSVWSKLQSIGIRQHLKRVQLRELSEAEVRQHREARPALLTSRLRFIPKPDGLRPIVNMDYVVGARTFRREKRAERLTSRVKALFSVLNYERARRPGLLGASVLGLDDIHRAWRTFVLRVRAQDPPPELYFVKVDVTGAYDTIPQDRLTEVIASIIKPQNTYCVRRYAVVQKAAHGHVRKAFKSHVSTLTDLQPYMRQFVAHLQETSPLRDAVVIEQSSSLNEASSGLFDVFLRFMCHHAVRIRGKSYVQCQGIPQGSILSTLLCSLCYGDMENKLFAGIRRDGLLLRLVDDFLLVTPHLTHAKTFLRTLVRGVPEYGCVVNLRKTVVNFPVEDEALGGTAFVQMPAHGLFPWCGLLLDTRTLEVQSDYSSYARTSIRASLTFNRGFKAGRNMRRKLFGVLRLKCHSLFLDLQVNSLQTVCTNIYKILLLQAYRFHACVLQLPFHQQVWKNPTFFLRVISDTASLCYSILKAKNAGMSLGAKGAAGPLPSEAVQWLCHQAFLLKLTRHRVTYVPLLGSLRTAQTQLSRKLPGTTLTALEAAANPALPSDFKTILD

| SMILES | pEC50 [1] | Concentration (Nucleic Acid) |
| --- | --- | --- |
| CCN(CC)CCNC(=O)CCCCC(=O)Nc1ccc(Nc2c3ccc(NC(=O)CCN4CCCC4)cc3nc3cc(NC(=O)CCN4CCCC4)ccc23)cc1 | 7.01 | 0.46 µM |
| CCN(CC)CCCCCCNC(=O)CCCCC(=O)Nc1ccc(Nc2c3ccc(NC(=O)CCN4CCCC4)cc3nc3cc(NC(=O)CCN4CCCC4)ccc23)cc1 | 7.10 | 0.49 µM |
| CN1CCN(C(=O)CCCCC(=O)Nc2ccc(Nc3c4ccc(NC(=O)CCN5CCCC5)cc4nc4cc(NC(=O)CCN5CCCC5)ccc34)cc2)CC1 | 6.78 | 0.59 µM |
| O=C(CCCCC(=O)N1CCCC1)Nc1ccc(Nc2c3ccc(NC(=O)CCN4CCCC4)cc3nc3cc(NC(=O)CCN4CCCC4)ccc23)cc1 | 6.50 | 0.72 µM |
| O=C(CCCCC(=O)N1CCOCC1)Nc1ccc(Nc2c3ccc(NC(=O)CCN4CCCC4)cc3nc3cc(NC(=O)CCN4CCCC4)ccc23)cc1 | 6.57 | 0.54 µM |
| CN(C)c1ccc(Nc2c3ccc(NC(=O)CCN4CCCC4)cc3nc3cc(NC(=O)CCN4CCCC4)ccc23)cc1 | 6.95 | 0.72 µM |
